Laboratory results reported in the NIST ThermoML archive (doi:10.1021/acs.jced.7b00650).

Conditions: Liquid; for viscosity: Capillary tube (Ostwald / Ubbelohde) method; for mass density: Vibrating tube method

CCCCCCCCCC [decane]
Conditions	mass density [kg/m3]	viscosity [mPa·s]
303.15 K, 2001 kPa	724.01	0.8079
303.15 K, 3991 kPa	725.58	0.8268
303.15 K, 6003 kPa	727.19	0.8461
303.15 K, 8001 kPa	728.75	0.8655
303.15 K, 9992 kPa	730.27	0.885
303.15 K, 13006 kPa	732.5	0.915
303.15 K, 16005 kPa	734.69	0.9445
303.15 K, 18998 kPa	736.88	0.9734
303.15 K, 21997 kPa	739	1.004
303.15 K, 25008 kPa	741.03	1.035
303.15 K, 27989 kPa	743.02	1.066
303.15 K, 29988 kPa	744.3	1.086
323.15 K, 1995 kPa	708.76	0.6249
323.15 K, 4003 kPa	710.68	0.6386
323.15 K, 5997 kPa	712.57	0.6529
323.15 K, 8005 kPa	714.3	0.6676
323.15 K, 10006 kPa	715.96	0.6824
323.15 K, 12995 kPa	718.36	0.7045
323.15 K, 15989 kPa	720.73	0.7274
323.15 K, 18994 kPa	723	0.7511
323.15 K, 21997 kPa	725.28	0.774
323.15 K, 25006 kPa	727.5	0.7981
323.15 K, 28004 kPa	729.62	0.822
323.15 K, 30005 kPa	731.03	0.8382
353.15 K, 5998 kPa	689.96	0.4714
353.15 K, 7997 kPa	691.97	0.4825
353.15 K, 22010 kPa	704.95	0.5612
353.16 K, 2000 kPa	685.65	0.448
353.16 K, 3999 kPa	687.9	0.4596
353.16 K, 9991 kPa	694.06	0.494
353.16 K, 13003 kPa	697.01	0.5106
353.16 K, 15994 kPa	699.86	0.5272
353.16 K, 19005 kPa	702.43	0.5442
353.16 K, 25000 kPa	707.44	0.5788
353.16 K, 27992 kPa	710.01	0.5967
353.16 K, 29995 kPa	711.67	0.6086

CCCCC [pentane]
Conditions	mass density [kg/m3]	viscosity [mPa·s]
293.21 K, 2000 kPa	628.05	0.232
293.21 K, 3998 kPa	630.31	0.2382
293.21 K, 6000 kPa	632.63	0.2439
293.21 K, 8003 kPa	634.89	0.2495
293.21 K, 13008 kPa	640.02	0.2637
293.21 K, 30000 kPa	655.38	0.31
293.22 K, 10008 kPa	636.91	0.2551
293.22 K, 16007 kPa	643	0.2719
293.22 K, 19009 kPa	645.81	0.2806
293.22 K, 22010 kPa	648.59	0.2885
293.22 K, 25002 kPa	651.19	0.2967
293.22 K, 28002 kPa	653.72	0.3046
313.1 K, 2005 kPa	608.49	0.1968
313.1 K, 6001 kPa	613.99	0.2075
313.1 K, 7999 kPa	616.58	0.2126
313.1 K, 10005 kPa	619.09	0.218
313.1 K, 13001 kPa	622.65	0.2259
313.1 K, 16005 kPa	626.03	0.2334
313.1 K, 19002 kPa	629.28	0.2409
313.1 K, 22002 kPa	632.38	0.2485
313.1 K, 25004 kPa	635.4	0.2558
313.1 K, 28002 kPa	638.2	0.2628
313.1 K, 30005 kPa	640.09	0.2676
313.11 K, 4002 kPa	611.31	0.2023
333.01 K, 2009 kPa	587.87	0.1679
333.01 K, 3997 kPa	591.4	0.1737
333.01 K, 6002 kPa	594.59	0.1787
333.01 K, 8008 kPa	597.69	0.1837
333.01 K, 10001 kPa	600.61	0.1888
333.01 K, 12998 kPa	604.82	0.1958
333.01 K, 15996 kPa	608.78	0.2029
333.01 K, 19000 kPa	612.5	0.21
333.01 K, 21997 kPa	616.1	0.217
333.01 K, 25000 kPa	619.39	0.2239
333.01 K, 27997 kPa	622.68	0.2306
333.01 K, 30006 kPa	624.71	0.2348
353.12 K, 2006 kPa	565.77	0.1452
353.12 K, 3997 kPa	570.01	0.1504
353.12 K, 6002 kPa	574.02	0.1557
353.12 K, 8003 kPa	577.79	0.1606
353.12 K, 10008 kPa	581.28	0.1654
353.12 K, 13000 kPa	586.31	0.1724
353.12 K, 16001 kPa	590.9	0.1792
353.12 K, 18997 kPa	595.21	0.1857
353.12 K, 25002 kPa	603.1	0.1987
353.12 K, 28005 kPa	606.77	0.2047
353.12 K, 30001 kPa	609.1	0.2087
353.13 K, 22000 kPa	599.29	0.1922

CCCCCCCCC [nonane]
Conditions	mass density [kg/m3]	viscosity [mPa·s]
293.21 K, 1993 kPa	719.36	0.7109
293.21 K, 3991 kPa	721.16	0.7266
293.21 K, 5993 kPa	722.88	0.7426
293.21 K, 7996 kPa	724.42	0.7587
293.21 K, 10001 kPa	725.92	0.775
293.21 K, 13001 kPa	728	0.8
293.21 K, 19004 kPa	732.11	0.8517
293.21 K, 22005 kPa	734.14	0.8782
293.21 K, 24997 kPa	736.13	0.9052
293.21 K, 27997 kPa	738.31	0.9329
293.21 K, 29995 kPa	739.58	0.9516
293.22 K, 16000 kPa	730.02	0.8254
313.1 K, 19007 kPa	718.18	0.6634
313.1 K, 22007 kPa	720.52	0.6827
313.1 K, 25009 kPa	722.7	0.7023
313.1 K, 28007 kPa	724.82	0.7222
313.1 K, 30010 kPa	726.21	0.7357
313.11 K, 2000 kPa	704.08	0.559
313.11 K, 4007 kPa	705.88	0.5709
313.11 K, 6006 kPa	707.62	0.5829
313.11 K, 8004 kPa	709.24	0.595
313.11 K, 10007 kPa	710.92	0.6072
313.11 K, 13003 kPa	713.28	0.6256
313.11 K, 16007 kPa	715.76	0.6444
333 K, 2014 kPa	688.53	0.4535
333 K, 3990 kPa	690.6	0.4631
333 K, 5995 kPa	692.58	0.4727
333.01 K, 8001 kPa	694.51	0.4824
333.01 K, 10007 kPa	696.11	0.4921
333.01 K, 13004 kPa	698.84	0.5067
333.01 K, 16002 kPa	701.48	0.5215
333.01 K, 19006 kPa	704.03	0.5364
333.01 K, 22003 kPa	706.5	0.5515
333.01 K, 25006 kPa	708.9	0.5667
333.01 K, 28003 kPa	711.23	0.5821
333.01 K, 30012 kPa	712.74	0.5925
353.12 K, 2004 kPa	672.27	0.3733
353.12 K, 3995 kPa	674.59	0.3814
353.12 K, 6000 kPa	676.83	0.3894
353.12 K, 8005 kPa	679.1	0.3975
353.12 K, 10010 kPa	681.31	0.4056
353.12 K, 13002 kPa	684.37	0.4178
353.12 K, 16003 kPa	687.3	0.43
353.12 K, 18999 kPa	689.99	0.4422
353.12 K, 22002 kPa	692.72	0.4546
353.12 K, 25004 kPa	695.35	0.467
353.12 K, 28007 kPa	697.9	0.4795
353.12 K, 30003 kPa	699.56	0.4879
